Source: paper PMC10870825, “Design, synthesis, and inhibitory activity of hydroquinone ester derivatives against mushroom tyrosinase” (RSC Advances, 2024)
“Also recorded” adds a separate entry of the source. Read-outs that look alike come from different tables or passages of the source.

What was measured:
[1] = target: T1, mushroom tyrosinase (mTyr) (Agaricus bisporus, UniProt C7FF04); test: Inhibitory activity assay on mTyr with L-tyrosine as substrate; assay type: biochemical; settings: for Concentration at maximum inhibition rate: second figure of the cell rate/concentration
Protocol: The synthesized hydroquinone ester derivatives were dissolved in 3% dimethyl sulfoxide (DMSO) solution and then diluted with phosphate-buffered solution (PBS, pH 6.86, 100 mM) to obtain different concentrations. […] The plate was incubated at 37 °C for 30 minutes, after which 20 μL of L-tyrosine solution (1 mM) was added and mixed. The absorbance at a wavelength of 475 nm was measured using a SpectraMax 190 microplate reader (MolecularDevices, USA) continuously for 30 minutes. PBS was used as a blank control, and kojic acid was used as a positive control.

[2] = target: T1, mushroom tyrosinase (mTyr); settings: read-out: IC50 for inhibiting mTyr activity; literature value; ref [15]; cited from earlier work
[3] = target: T1, mushroom tyrosinase (mTyr); test: Inhibition reversibility and type assay (Lineweaver–Burk kinetics) on mTyr; assay type: biochemical; settings: for Inhibition type: Lineweaver–Burk plots, 300 U/mL mTyr, varying L-tyrosine
Protocol: The methodology for evaluating the reversibility of inhibition and the inhibition type of the compounds on mTyr closely parallels the procedure outlined in the inhibitory activity assay of compounds on mTyr.
For the evaluation of inhibition reversibility, a constant concentration of 1 mM L-tyrosine was employed. […] The absorption was measured to determine the initial enzymatic reaction rate corresponding to each enzyme concentration. Specifically, the initial enzymatic reaction rate was calculated by subtracting the initial absorbance from the absorbance recorded at a specific time and then dividing the result by the corresponding time interval.[32] Subsequently, the collected data were plotted on a scatter plot, with the initial enzymatic reaction rate represented on the Y-axis and the enzyme concentration on the X-axis. In cases of reversibility, this will result in fitting a set of straight lines passing through the origin. Conversely, when reversibility was absent, a set of parallel lines emerged as the fit.[33]
In order to investigate the inhibition type, a final concentration of 300 U per mL mTyr was employed, accompanied by varying concentrations of L-tyrosine. The enzymatic reaction rate was evaluated for different concentrations of compounds 3a–3e. Subsequently, the ΔOD475 values were plotted against the L-tyrosine concentration using the Lineweaver–Burk equation, allowing for the creation of double reciprocal plots.

[4] = tested on: human immortalized keratinocyte (HaCaT) non-tumor cells; test: CCK-8 cell proliferation and cytotoxicity assay, HaCaT cells; assay type: cell-based
Protocol: (§1) Cell proliferation and cytotoxicity assays were performed using the CCK-8 on Human Epidermal Melanoma A375 and HaCaT cells. Initially, the cells were seeded in 96-well plates at a density of 4 × 10^4 cells per well and incubated for 24 hours at 37 °C with 5% CO2 in a humidified incubator. Each treatment was conducted in six duplicate wells. Various concentrations of the tested compounds were added to the wells, and the cells were further incubated for 72 hours. After the incubation period, CCK-8 solution was added to each well and incubated for an additional 2 hours. The absorbance of each well at 450 nm was measured using an absorbance microplate reader (BioTek ELx800, USA). Negative controls with cells treated with distilled water and positive controls with cells were treated with 10 μg mL^−1 taxol was included in the assay. The percentage of cell growth inhibition was calculated using eqn (2).2 [drawing 1] where G1 represents the absorbance of a mixture containing cells, medium, and CCK8, G2 represents the absorbance of absorbance of a mixture containing cells, medium, CCK8, and the test compound; G3 represents a mixture containing medium and CCK8.
(§2) Cell growth and morphology were observed using an inverted microscope (Olympus IX51, Japan). The experiments were conducted in triplicate to ensure accuracy and consistency of results.

[5] = tested on: human epidermal melanoma A375 cells; test: CCK-8 cell proliferation and cytotoxicity assay, A375 cells; assay type: cell-based
Protocol: as §1, §2

[6] = substrate L-tyrosine, read-out: IC50 for inhibiting mTyr activity

T1 sequence (C7FF04 1-392): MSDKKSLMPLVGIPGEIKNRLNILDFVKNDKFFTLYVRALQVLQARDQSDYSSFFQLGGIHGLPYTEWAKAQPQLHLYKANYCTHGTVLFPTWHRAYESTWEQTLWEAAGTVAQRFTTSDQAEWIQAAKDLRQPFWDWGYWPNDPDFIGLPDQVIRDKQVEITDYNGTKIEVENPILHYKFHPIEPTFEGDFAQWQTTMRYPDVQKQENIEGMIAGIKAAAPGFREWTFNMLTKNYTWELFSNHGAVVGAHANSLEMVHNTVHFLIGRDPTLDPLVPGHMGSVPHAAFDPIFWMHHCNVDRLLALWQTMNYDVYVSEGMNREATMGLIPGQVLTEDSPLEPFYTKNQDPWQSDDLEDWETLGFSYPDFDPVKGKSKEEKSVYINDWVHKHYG

Structure (SMILES)	Concentration at maximum inhibition rate [1]	melting point	IC50 [1, 6]	Inhibition type [3]	maximum reaction rate (Vm) of mTyr ([3]; compound concentration 5 μM)	maximum reaction rate (Vm) of mTyr ([3]; compound concentration 10 μM)	maximum reaction rate (Vm) of mTyr ([3]; compound concentration 20 μM)	other results
O=C(O)C=Cc1ccc(O)cc1 [4-Hydroxycinnamic acid, 4-hydroxycinnamic acid, reference compound]	50 µM							IC50 [1]: 16.4 ± 5.42 µM
O=C(O)/C=C/c1ccccc1 [Cinnamic acid, cinnamic acid]								IC50 [2]: 201 ± 5.3 µM
O=C(/C=C/c1ccc(O)cc1)Oc1ccc(O)cc1 [Compound 3a, 4-hydroxyphenyl (2E)-3-(4-hydroxyphenyl) prop-2-enoate]	10 µM	217 to 220 °C	1.75 ± 0.02 µM	Noncompetitive; also recorded: non-competitive inhibition; also recorded: non-competitive inhibitors	0.4272 ×103, min-1	0.2843 ×103, min-1	0.1836 ×103, min-1	
O=C(C=Cc1ccccc1)Oc1ccc(O)cc1 [Compound 3b, 4-hydroxyphenyl cinnamate]	2.5 µM	171 to 173 °C	0.18 ± 0.06 µM	Mix-noncompetitive; also recorded: mixed-type inhibition				inhibition at 50 µM ([4]; Homo sapiens, HaCaT, 50 μM, read-out: inhibition rate on HaCaT cells): 9.09%; IC50 ([4]; Homo sapiens, HaCaT, 72 hours, CCK-8, read-out: IC50 against HaCaT cells): 169 µM; inhibition rate on HaCaT cells ([4]; concentration range 3.125–25 μM): below 5%; inhibition at 50 µM ([5]; A-375, 50 μM, read-out: inhibition rate on A375 cells): 60.9%; IC50 ([5]; A-375, 72 hours, CCK-8, read-out: IC50 against A375 cells): 40.8 µM; maximum reaction rate (Vm) of mTyr ([3]; compound concentration 1 μM): 0.7572 ×103, min-1; maximum reaction rate (Vm) of mTyr ([3]; compound concentration 2 μM): 0.3461 ×103, min-1; maximum reaction rate (Vm) of mTyr ([3]; compound concentration 4 μM): 0.2145 ×103, min-1; Ki ([3]; read-out: free enzyme inhibition constant (KI)): 1880 nM; mTyr–substrate complex inhibition constant (KIS) ([3]; secondary plots, mixed-type inhibition): 0.3395 µM
O=C(CCc1ccccc1)Oc1ccc(O)cc1 [Compound 3c, 4-hydroxyphenyl 3-phenylpropanoate]	50 µM	149 to 151 °C	7.46 ± 0.9 µM	Noncompetitive; also recorded: non-competitive inhibition; also recorded: non-competitive inhibitors	0.6327 ×103, min-1	0.3424 ×103, min-1	0.2581 ×103, min-1	
O=C(Oc1ccc(O)cc1)c1ccccc1 [Compound 3d, 4-hydroxyphenyl benzoate]	75 µM	150 to 152 °C	20.5 ± 1.79 µM	competitive inhibition; also recorded: competitive inhibitors	0.9216 ×103, min-1	0.9208 ×103, min-1	0.9209 ×103, min-1	
O=C(Oc1ccc(O)cc1)c1ccc(F)cc1 [Compound 3e, 4-hydroxyphenyl 4-fluorobenzoate]	100 µM	142 to 144 °C	24.7 ± 3.04 µM	competitive inhibition; also recorded: competitive inhibitors	1.474 ×103, min-1	1.470 ×103, min-1	1.468 ×103, min-1	
O=C(Oc1ccc(OC(=O)c2ccc(F)cc2)cc1)c1ccc(F)cc1 [Compound 3f, 1,4-phenylene bis(4-fluorobenzoate)]	100 µM	196 to 198 °C	54.2 ± 8.65 µM					
O=C(CCc1ccccc1)Oc1ccc(OC(=O)CCc2ccccc2)cc1 [Compound 3g, 1,4-phenylene bis(3-phenylpropanoate)]		128 to 130 °C						
Oc1ccc(O)cc1 [Hydroquinone, hydroquinone]	75 µM		22.78 ± 0.16 µM					
